The text below walks through data of article PMC8919389, “Discovery of TAK-925 as a Potent, Selective, and Brain-Penetrant Orexin 2 Receptor Agonist” (ACS Medicinal Chemistry Letters, 2022).

Structures are written as SMILES. Read-outs that look alike come from different tables or passages of the source.

In one series the target is T1, human OX2R (Homo sapiens, UniProt O43614).
T1 sequence (O43614 1-444): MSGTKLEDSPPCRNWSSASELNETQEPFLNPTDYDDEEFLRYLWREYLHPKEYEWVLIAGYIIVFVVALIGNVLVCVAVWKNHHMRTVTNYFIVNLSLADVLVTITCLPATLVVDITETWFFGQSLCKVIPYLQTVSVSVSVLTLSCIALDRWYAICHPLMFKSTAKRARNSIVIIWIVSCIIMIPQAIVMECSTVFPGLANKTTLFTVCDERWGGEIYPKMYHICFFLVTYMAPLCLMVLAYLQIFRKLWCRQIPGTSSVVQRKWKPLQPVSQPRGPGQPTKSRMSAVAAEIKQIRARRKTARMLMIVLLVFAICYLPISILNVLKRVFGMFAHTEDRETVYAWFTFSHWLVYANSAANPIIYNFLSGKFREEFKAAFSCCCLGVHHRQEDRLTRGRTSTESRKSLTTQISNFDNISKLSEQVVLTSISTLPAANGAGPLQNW
As to the kind of experiment: Calcium flux assay, OX2R agonistic activity.

The target of another series is T2, human OX1R (Homo sapiens, UniProt O43613).
T2 construct: expressed in transfected cells; host or cells: CHO-K1
T2 sequence (O43613 1-425): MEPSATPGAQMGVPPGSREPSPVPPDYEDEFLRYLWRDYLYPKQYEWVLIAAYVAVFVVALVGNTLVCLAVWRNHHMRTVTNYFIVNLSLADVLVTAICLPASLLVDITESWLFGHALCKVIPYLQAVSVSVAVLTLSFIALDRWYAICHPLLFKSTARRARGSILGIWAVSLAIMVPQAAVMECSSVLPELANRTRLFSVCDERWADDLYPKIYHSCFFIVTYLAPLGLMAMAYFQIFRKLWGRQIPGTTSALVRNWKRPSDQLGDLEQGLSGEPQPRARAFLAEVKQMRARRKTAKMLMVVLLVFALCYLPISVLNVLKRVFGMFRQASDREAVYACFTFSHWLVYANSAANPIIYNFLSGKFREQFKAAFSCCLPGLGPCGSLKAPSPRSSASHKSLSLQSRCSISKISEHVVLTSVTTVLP
Briefly: Calcium flux assay, OX1R agonistic activity. The format is cell-based. Conditions: CHO cells expressing human OX1R, 95% confidence intervals in brackets, duplicate measurements. How it is done: Calcium flux assay (in vitro agonistic activity of OX2R and OX1R)1 hOX1R/CHO -K1 cells and hOX2R/CHO-K1 cells suspended in Ham's F-12 medium (Fujifilm Wako Pure Chemical Co.) supplemented with 100 U/mL penicillin-streptomycin and 10% FBS […]
cells/well and in black-walled clear -bottomed 96-well plates (Corning) at 45000 cells/well, respectively. The plated cells were grown overnight at 37 °C in the presence of 5% CO2. The following day, the medium was removed, and the cells were incubated with assay buffer ( H BS S with 20mM HEPES, pH 7.4, and 0.1% fatty acid free BSA) containing 2.5 μg/mL Fluo- 4 AM […]
Laboratories), and 0.08% Pluronic F127 (Dojindo Laboratories) for 30 min at 37 °C in the presence of 5% CO2. After incubation, the cells were stimulated with test compounds in the assay buffer. Calcium mobilization was measured using an FDSS/μCELL (Hamamatsu Photonics […]
r epr esent the 0% and 100% responses, respectively.

The target of series [1] is multidrug resistance protein 1 (MDR-1) (Homo sapiens, UniProt P08183). As to the kind of experiment: Transcellular transport study using human MDR1-expressing LLC-PK1 cells. Particulars: for MDR-1 ratio (directional transport ratio B to A/A to B): 10 μM test compound, 2 h.
Procedure: Transcellular transport study using a t ransporter- exp ressi on syst em
Human MDR1-expressing LLC -PK1 cells were cultured as reported previously with minor
modifications. 2 T he transcellular transport study was performed as reported previously.2 In brief,
the cells were grown for 7 days in an HTS Transwell 96 -well permeable support (pore size, 0.4
μm; sur f ace ar ea, 0. 143 cm2) with a polyethylene ter ephthalate membr ane ( Cor ning Lif e Sciences,
T he cells wer e pr eincubated with M199
at 37 °C for 30 min. Subsequently, transcellular transport was initiated by the addition of M199
either to apical compartments (75 μ L) or to the basolateral compartments (250 μ L) containing 10
μM digoxin, 200 μM lucifer yellow as a marker for the monolayer tightness, and 10 μM test
compounds and then terminated by the removal of each assay plate after 2 h. The aliquots (25
μL) in the opposite compartments were mixed with acetonitrile containing alprenolol an d
diclofenac as an internal standard and then centrifuged. The compound concentrations in the
supernatant were measured by LC− MS/MS. The apparent permeability (Pap p ) of test compounds
in the receiver wells was deter mined, and the efflux ratio for the MDR1 membrane permeability
test was calculated using the following equation:
Efflux ratio = Papp,BtoA/Papp,AtoB
wher e Papp,AtoB is the apical-to-ba sal passive permeability−sur f ace ar ea pr oduct and P app,BtoA is the
basal-to -apical pas sive per meability−sur f ace ar ea pr oduct.
The test system of a further series is ICR mice. Briefly: Wakefulness time in ICR mice during the sleep phase (EEG/EMG). The class given is in vivo. Particulars: sleep phase (ZT5), 3 mg/kg subcutaneous, n = 8, P < 0.001 vs vehicle. As for the experimental part:
It has been reported that activation of the orexin system by intracerebroventricular injection of OX-A increases wakefulness in rodents.[20],[21] In this study, we assessed the effect of compound 16 on wakefulness time in ICR mice during the sleep phase based on the measurements of electroencephalogram and electromyogram.
Figure 5 Effect of compound 16 on wakefulness time in ICR mice during the sleep phase. Compound 16 at 3 mg/kg or vehicle was administered subcutaneously to ICR mice at zeitgeber time 5, and electroencephalograms and electromyograms were recorded. Analysis was performed with data collected during 3 h after drug administration. Data were presented as the mean + standard error of the mean (n = 8). ***P < 0.001, compared with the vehicle-treated mice (two-tailed paired t test).
Evaluation of wakefulness time m easu rem ent of compound 16 in m ice
I CR mice were obtained from CLEA Japan Inc. (Tokyo, Japan). M ice were housed in groups of 4 per cage in a light controlled room (12 h light/dark cycle with lights on at 07:00 h). Food and tap water were provided ad libitum . […] 1 Compound 16 at 3 mg/kg suspended in 0.5% methylcellulose saline was administered subcutaneously to mice at zeitgeber time 5 (ZT5) in a volume of 10 mL/kg body weight, and then EE G was recorded. […] The statistical significance between two groups was determined by paired t-test with significance set at P < 0.05. […]

A short description of series [2]: Brain and plasma concentration after intraperitoneal administration in mice. The format is in vivo, C57BL/6J mice. Particulars: 10 mg/kg ip; for concentration at 0.5 h / concentration at 1 h: n = 3. How it is done:
Brain and plasma concentration of compound 16 was measured after intraperitoneal administration at 10 mg/kg in mice (Table 5).
Measurem ent of plasm a and brain concent rat ion of compound 16 in mice The aliquots of the brain homogenate were mixed with acetonitrile containing internal standard.
The mixtures were centrifuged. The supernatants were diluted with solvents for LC-MS / MS (mobile phase A: 10 mM ammonium formate/formic acid (100/0.2, v/v), mobile phase B: acetonitrile/formic acid (100/0.2, v/v)). The diluted solutions were injected into LC-MS / MS (API5000, AB Sciex, CA) equipped with Shimadzu Shim-pack XR-ODS (2.2 μm, 2.0 × 30 mm, Shimadzu Corporation, Japan) at 50 °C. Analyst sof twar e T M ( ver sio n 1.4.2) was used for data acquisition and processing.
Ethics Statement. The care and use of the animals and the experimental protocols used in this research were approved by the Experimental Animal Care and Use Committee of Takeda Phar maceutical Company Limited.

The mark [3] stands for this setting: read-out: OX2R agonistic activity EC50, CHO cells expressing human OX2R, calcium flux, 95% confidence intervals in brackets, duplicate measurements.

As to `CC(=O)N1CCC[C@H](NS(C)(=O)=O)[C@@H]1CO[C@H]1CC[C@@H](C)CC1` (relative stereo) [compound 12], the EC50 at human OX2R is 3.7 µM; on human OX1R, more than 100 µM.
With `CC(=O)N[C@H]1CCCN(C(C)=O)[C@H]1CO[C@H]1CC[C@@H](C(C)C)CC1` (stereo in doubt) [compound 11], the figures for the EC50 at human OX2R and at human OX1R were more than 30 µM and more than 100 µM, respectively.
Regarding `CCS(=O)(=O)NC1CCCN(C(C)=O)C1COC1CCC(C(C)C)CC1` (stereo not drawn) [compound 2], the EC50 at human OX2R (setting [3]) is 0.57 µM; on human OX1R it was more than 100 µM. The Emax on human OX2R (read-out: maximum response [Emax], OX2R agonism) was 94%.
On to `CCS(=O)(=O)N[C@H]1CCCN(C(C)=O)[C@H]1CO[C@H]1CC[C@@H](C(C)C)CC1` [compound 3], for which the EC50 was 0.27 µM at human OX2R (setting [3]) and more than 100 µM on human OX1R.
As to `CCS(=O)(=O)N[C@@H]1CCCN(C(C)=O)[C@H]1CO[C@H]1CC[C@@H](C(C)C)CC1` [compound 4], the EC50 on human OX2R (setting [3]) was more than 30 µM; at human OX1R, more than 100 µM.
`CCS(=O)(=O)N[C@H]1CCCN(C(C)=O)[C@H]1CO[C@H]1CC[C@H](C(C)C)CC1` [compound 5]: the values for the EC50 on human OX2R (setting [3]) and on human OX1R were more than 30 µM and more than 100 µM, respectively.
For `CCS(=O)(=O)N[C@@H]1CCCN(C(C)=O)[C@H]1CO[C@H]1CC[C@H](C(C)C)CC1` [compound 6], in that order: more than 30 µM and more than 100 µM.
Turning to `CC(=O)N1CCC[C@H](NS(C)(=O)=O)[C@@H]1CO[C@H]1CC[C@@H](C(C)C)CC1` [compound 7], the EC50 on human OX2R (setting [3]) was 0.33 µM; on human OX1R, more than 100 µM.
Regarding `CC(=O)N1CCC[C@H](NS(=O)(=O)C(C)C)[C@@H]1CO[C@H]1CC[C@@H](C(C)C)CC1` [compound 8], the EC50 was 0.94 µM on human OX2R (setting [3]) and more than 100 µM on human OX1R.
`CCCS(=O)(=O)N[C@H]1CCCN(C(C)=O)[C@H]1CO[C@H]1CC[C@@H](C(C)C)CC1` [compound 9]: the EC50 on human OX2R (setting [3]) is 2.5 µM; at human OX1R, more than 100 µM.
For `CC(=O)N1CCC[C@H](N(C)S(C)(=O)=O)[C@@H]1CO[C@H]1CC[C@@H](C(C)C)CC1` [compound 10], the values for the EC50 at human OX2R (setting [3]) and on human OX1R were more than 30 µM and more than 100 µM, respectively.
As for `CS(=O)(=O)N[C@H]1CCCN[C@H]1CO[C@H]1CC[C@@H](c2ccccc2)CC1` [compound 14], the “MDR-1 ratio (directional transport ratio B to A/A to B)” value (“MDR-1 ratio” below) in series [1] is 0.8. Further, the EC50 at human OX1R was more than 100 µM.
In the case of `CCC(=O)N1CCC[C@H](NS(C)(=O)=O)[C@@H]1CO[C@H]1CC[C@@H](c2ccccc2)CC1` [compound 15], in series [1], the “MDR-1 ratio” value is 2.2. Moreover, the EC50 was 0.011 µM at human OX2R (setting [3]) and more than 100 µM at human OX1R.
As for `COC(=O)N1CCC[C@H](NS(C)(=O)=O)[C@@H]1CO[C@H]1CC[C@@H](c2ccccc2)CC1` [compound 16, methyl (2R,3S)-3-((methylsulfonyl)amino)-2-(((cis-4-phenylcyclohexyl)oxy)methyl)piperidine-1-carboxylate], the “MDR-1 ratio” value in series [1] was 0.8. For the same compound, in series [1] (apical to basal), the “MDR-1 transport A to B” value is listed as 169. In addition, the “total wakefulness time during 3 h after administration” value in the series on ICR mice was “significantly increased”. For the same compound, the values for the EC50 on human OX2R (setting [3]) and at human OX1R were 0.0055 µM and more than 100 µM, respectively. Further, the half-life in mice result in series [2] (mice) is reported as “short half-life”. In series [2] (mouse, brain/plasma, C57BL/6J mice, 0.5 h, read-out: brain-to-plasma concn ratio), the Kp at 0.5 h worked out at 0.2. The Kp at 1 h in series [2] (mouse, brain/plasma, C57BL/6J mice, 1 h, read-out: brain-to-plasma concn ratio) came to 0.2. Besides, the concentration at 0.5 h in series [2] (mouse, brain, C57BL/6J mice, 0.5 h, read-out: brain concn) was determined as 183 ng/g; in series [2] (mouse, plasma, C57BL/6J mice, 0.5 h, read-out: plasma concn) it was 880 ng/mL. In addition, the concentration at 1 h was determined as 63 ng/g in series [2] (mouse, brain, C57BL/6J mice, 1 h, read-out: brain concn) and 288 ng/mL in series [2] (mouse, plasma, C57BL/6J mice, 1 h, read-out: plasma concn).
For the compound `CCOC(=O)N1CCC[C@H](NS(C)(=O)=O)[C@@H]1CO[C@H]1CC[C@@H](c2ccccc2)CC1` [compound 17], in series [1], the “MDR-1 ratio” value is recorded as 0.7. Also, the figures for the EC50 on human OX2R (setting [3]) and on human OX1R were 0.027 µM and more than 100 µM, respectively.
As for `CCNC(=O)N1CCC[C@H](NS(C)(=O)=O)[C@@H]1CO[C@H]1CC[C@@H](c2ccccc2)CC1` [compound 18], the “MDR-1 ratio” value in series [1] amounted to 4.8. For the same compound, on human OX1R, the 50% effective concentration (EC50) is 14 µM.
